{"source": "patent US20210039089A1", "about": "“DEVICES, KITS, AND METHODS FOR LABEL-FREE SEPARATION AND SUBTYPING OF RARE CELLS” (University of Georgia Research Foundation, Inc., priority 2019, published 2021)", "molecules": {"B1": {"name": "slit2: Slit guidance ligand 2, chemo-repellent for WBCs, neutrophil inhibitor (protein, UniProt O94813 31-1529, looked up)", "Slit homolog 2 protein": "QCSCSGSTVDCHGLALRSVPRNIPRNTERLDLNGNNITRITKTDFAGLRHLRVLQLMENKISTIERGAFQDLKELERLRLNRNHLQLFPELLFLGTAKLYRLDLSENQIQAIPRKAFRGAVDIKNLQLDYNQISCIEDGAFRALRDLEVLTLNNNNITRLSVASFNHMPKLRTFRLHSNNLYCDCHLAWLSDWLRQRPRVGLYTQCMGPSHLRGHNVAEVQKREFVCSGHQSFMAPSCSVLHCPAACTCSNNIVDCRGKGLTEIPTNLPETITEIRLEQNTIKVIPPGAFSPYKKLRRIDLSNNQISELAPDAFQGLRSLNSLVLYGNKITELPKSLFEGLFSLQLLLLNANKINCLRVDAFQDLHNLNLLSLYDNKLQTIAKGTFSPLRAIQTMHLAQNPFICDCHLKWLADYLHTNPIETSGARCTSPRRLANKRIGQIKSKKFRCSAKEQYFIPGTEDYRSKLSGDCFADLACPEKCRCEGTTVDCSNQKLNKIPEHIPQYTAELRLNNNEFTVLEATGIFKKLPQLRKINFSNNKITDIEEGAFEGASGVNEILLTSNRLENVQHKMFKGLESLKTLMLRSNRITCVGNDSFIGLSSVRLLSLYDNQITTVAPGAFDTLHSLSTLNLLANPFNCNCYLAWLGEWLRKKRIVTGNPRCQKPYFLKEIPIQDVAIQDFTCDDGNDDNSCSPLSRCPTECTCLDTVVRCSNKGLKVLPKGIPRDVTELYLDGNQFTLVPKELSNYKHLTLIDLSNNRISTLSNQSFSNMTQLLTLILSYNRLRCIPPRTFDGLKSLRLLSLHGNDISVVPEGAFNDLSALSHLAIGANPLYCDCNMQWLSDWVKSEYKEPGIARCAGPGEMADKLLLTTPSKKFTCQGPVDVNILAKCNPCLSNPCKNDGTCNSDPVDFYRCTCPYGFKGQDCDVPIHACISNPCKHGGTCHLKEGEEDGFWCICADGFEGENCEVNVDDCEDNDCENNSTCVDGINNYTCLCPPEYTGELCEEKLDFCAQDLNPCQHDSKCILTPKGFKCDCTPGYVGEHCDIDFDDCQDNKCKNGAHCTDAVNGYTCICPEGYSGLFCEFSPPMVLPRTSPCDNFDCQNGAQCIVRINEPICQCLPGYQGEKCEKLVSVNFINKESYLQIPSAKVRPQTNITLQIATDEDSGILLYKGDKDHIAVELYRGRVRASYDTGSHPASAIYSVETINDGNFHIVELLALDQSLSLSVDGGNPKIITNLSKQSTLNFDSPLYVGGMPGKSNVASLRQAPGQNGTSFHGCIRNLYINSELQDFQKVPMQTGILPGCEPCHKKVCAHGTCQPSSQAGFTCECQEGWMGPLCDQRTNDPCLGNKCVHGTCLPINAFSYSCKCLEGHGGVLCDEEEDLFNPCQAIKCKHGKCRLSGLGQPYCECSSGYTGDSCDREISCRGERIRDYYQKQQGYAACQTTKKVSRLECRGGCAGGQCCGPLRSKRRKYSFECTDGSSFVDEVEKVVKCGCTRCVS"}}, "key": {"[1]": {"test_system": "MDA-MB-231 breast cancer cell line", "test": "MChip cancer cell migration assay, cells loaded in channel #1", "type": "cell-based", "method": "The microfluidic device was pre-filled with FBS-free cell culture medium and incubated at 37° C. for 1 hour. All of the channel inlet/outlet, except cell loading inlets (top/bottom channel #1) and middle channel outlet, are sealed with tape before cell loading. Cancer cells were collected from culture plates with 0.25% Trypsin-EDTA (ThermoFisher, Waltham, Mass.) and pelleted by centrifugation at 500 g for 5 minutes. Then, the cells were re-suspended in FBS-free culture medium, DMEM or RPMI (ThermoFisher, Waltham, Mass.), to a concentration of 5×10^5 cells/mL. 50 μL of cell suspension was pipetted into the cell loading channels. One syringe pump (Chemyx, Stafford, Tex.) was connected to the middle channel outlet and the flow rate was 5 μL/min. When all entrances of migration channels were filled with cancer cells, the pump was stopped and the cell suspension was replaced with FBS-free cell culture medium. The device was then placed in the incubator (37° C., 5% CO2) for 40 min to ensure the cell adhesion to the glass slide. Then, the tape/covers were removed from the cell loading outlet and middle inlet, and these inlets were connected with syringe pumps. The FBS-free medium flowed into the cell loading channel while the middle channel was filled with medium containing 10% FBS. The flow rates for 3 channels were 0.1 μL/min. The entire chip was placed in the cell culture incubator (37° C., 5% CO2) for about 24 hours. […]\nSince migration time^14, 21 and FBS concentration were key parameters that determined the final position of individual cells, a series experiment were conducted to test the influence of different FBS concentrations (0%, 5%, and 10%) and various working time (6 hr, 12 hr, and 24 hr). […] It is noteworthy that cell migratory behaviors were also determined by the glass coating method, for example, coating using different concentrations of collagen and poly-L-Lysine (FIG. 7). […]"}, "[2]": {"test_system": "MDA-MB-231 cancer cells", "test": "MChip purification assay, cells loaded in middle channel, cancer cell readout", "type": "cell-based", "settings": "FMLP vs control; FIG. 14", "method": "(§1) WBCs and MDA-MB-231 cancer cells were mixed at a 1:1 ratio in FBS-free DMEM medium and loaded to the top edge of the middle/main channel. The positions of these cells were determined by an optimized flow rate and open/close of channel inlets/outlets. Briefly, the microfluidic device was filled with cell culture medium and incubator at 37° C. for one hour. Sealed all the inlet/outlets except cell loading inlet (middle/main channel) and channel #1 outlet (top). 50 μL cell mixture was loaded into cell loading inlet and the cell alignment was achieved using a syringe pump (5 μL/min) that connected to the channel #1 outlet (top). Then replaced the cell suspension with FBS-free medium and incubated for 30 minutes. The FBS-free medium flowed into the middle channel, the top channel (first outer channel) #1 was filled with medium containing 10% FBS, and the bottom channel (second outer channel) […] was filled with FBS-free medium containing FMLP (200 ng/mL). The flow rates for 3 channels were 0.1 μL/min. The cells were incubated at 37° C. for 24 hours.\n(§2) To retrieve the cancer cells of heterogeneously migratory properties with low WBCs contamination, the cell loading channel and “chemos” loading channel (middle, #9) were swapped: cells was loaded to the top part of the middle channel (#9) while the serum was loaded into side channels (top/bottom, #1). […]"}, "[3]": {"test_system": "WBCs", "test": "MChip purification assay, cells loaded in middle channel, WBC readout", "type": "cell-based, human", "method": "as §1\nThe blood sample was drawn from multiple healthy donors in compliance with the applicable federal, state, and institutional policies and procedures in the United States. Healthy human blood samples were obtained from the Clinical and Translational Research Unit of the University of Georgia with informed consent according to an IRB-approved protocol. The collected blood samples were stored in vacutainer K2-EDTA (BD, Franklin Lakes, N.J.). Complete blood count (CBC) reported was obtained to determine the number & subtypes of WBCs. The blood processing with iFCS was discussed in our previous work (Zhao, et al., Lab on a Chip 2019, 19 (10), 1860-76, incorporated by reference above).^10\nas §2"}, "[4]": {"test_system": "WBCs", "test": "MChip WBC migration assay, cells loaded in channel #1", "type": "cell-based, human", "method": "FIGS. 6A-6H illustrate purification of circulating tumor cells isolated from human blood using iFCS separation and an embodiment of a device of the present disclosure. FIG. 6A is images validation of combination effect of using iFCS and a device of the present disclosure with cultured cancer cells spiked into healthy blood. Left, an iFCS device was used to recover more than 99.2% spiked cancer cells and deplete many WBCs (˜500 cells per mL). Collected cancer cells and WBCs were injected into the “MChip” of the present disclosure to further purify CTC by removing most remaining WBCs based on different migratory abilities, as shown in the right image. Migratory cancer cells could be retrieved with high purity. FIG. 6B is a graph comparing migratory abilities for cells before and after iFCS processing. […] FIG. 6C illustrates WBC (n=-5000, channel #1 loading) migration assays under control (FBS only), WBC chemo-attractant (FM LP) and WBC chemo-repellent (Slit2). FBS (10%) or Slit2 (5 μg/mL) were loaded into the middle channel (channel #9), while FMLP (200 ng/mL) were filled in the […]. Only the WBCs of >200 μm Y position were counted. […] Right, images of WBCs 24-hour migration assay using Slit2 (5 μg/mL) in 10% FBS. Flow rate v=0.1 μL/min. WBCs were stained with cell tracker red. Fluorescence images were taken at 0 hour and 24 hours. Circles indicate the migratory WBCs. FIG. 6D is a graph illustrating breast cancer cells, MDA-MB-231, loaded into channel #1 with Slit2 (5 μg/mL) in 10% FBS in the middle channel. Flow rate v=0.1 μL/min. The graph indicates positions of MDA-MB-231 and the rectangular symbols indicate the mean value. FIG. 6E is an image of WBCs (red) and MDA-MB-231 (green) mixture (1:1) migration assay with middle channel (channel #9) filled with 10% FBS and Slit2 (5 μg/mL). At 24 hours, most of the migratory cancer cells moved into the migration/collection channels with ˜2 WBCs contamination. FIG. 6F illustrates a WBC migration assay using FBS, FMLP, and Slit2. WBCs (n=˜2500) loaded into the top edge of the middle channel. […]"}, "[5]": {"settings": "1:1 mixture, 10% FBS top channel, 0% FBS middle, 0% FBS + FMLP (200 ng/mL) bottom, 24 hours"}}, "note": "“Also recorded” adds a separate entry of the source.", "data": [{"molecule": "collagen", "values": [{"measurement": "average migration distance by glass coating method", "setting": "[1]; collagen vs poly-L-Lysine coating at different concentrations, FIG. 7", "value": "largest"}]}, {"molecule": "fMet-Leu-Phe [FMLP]", "values": [{"measurement": "effect on MDA-MB-231 migration", "setting": "[2]", "value": "without a negative effect"}, {"measurement": "WBCs moved to the bottom part", "setting": "[3]; [5]", "value": 88.3, "unit": "%"}, {"measurement": "WBCs stayed in the middle loading channel", "setting": "[3]; [5]", "value": 11.2, "unit": "%"}, {"measurement": "effect on WBC migration direction", "setting": "[3]; FMLP in bottom side channel, WBCs loaded at top edge of middle channel, FIG. 6F", "value": "attract the majority of WBCs to the bottom part; also recorded: significant performance in inducing cells toward the bottom channel"}]}, {"molecule": "B1", "values": [{"measurement": "cancer cells squeezed into the migration channel", "setting": "[1]; 5 μg/mL slit2 in 10% FBS in middle channel, 0.1 μL/min", "value": 85, "unit": "%"}, {"measurement": "effect on migratory behavior of MDA-MB-231 cancer cells", "setting": "[1]; 5 μg/mL slit2 in 10% FBS in middle channel, P=0.004", "value": "slightly compromise"}, {"measurement": "WBCs contamination in migration/collection channels", "setting": "[4]; WBCs and MDA-MB-231 mixture (1:1), middle channel 10% FBS and Slit2 (5 μg/mL), 24 hours", "value": "~2", "unit": "WBCs"}, {"measurement": "loaded WBCs remaining in the loading channel with non-migratory cells", "setting": "[4]; middle channel 10% FBS and 5 μg/mL slit2", "value": 99.6, "unit": "%"}, {"measurement": "WBCs that left the cell loading channel (#1)", "setting": "[4]; middle channel loaded with 10% FBS and 5 μg/mL slit2, 24 hours, 0.1 μL/min", "value": 0.4, "unit": "%"}]}]}
